Legend:
[1] = Physical appearance, melt method, HCO-40 and compound 1001; assay type: physicochemical; settings: 1001 4 wt %
Procedure: The preparation of MNF encapsulating compound 1001 (neat oil) can be divided into two steps. […] […] To this melt polymer compound 1001 (˜20 mg), thermostated at 40° C., was added and mixed for homogenous distribution. […] (in refrigerator).
(§1) This aqueous solution was allowed to reach room temperature, under natural conditions. The pH of the solution was adjusted to 5.5 and the volume was made up with 2× phosphate buffer saline (pH 5.5) containing octoxynol-40 (0.01 wt %) and PVP-K-90 (1.2 wt %). The formulation was filtered through 0.2 μm nylon filter to remove any foreign material and obtain a clear homogenous aqueous RX-1001 formulation.
(§2) The results obtained for physical appearance of the mixture, different phases, at different temperatures and appearance of final formulation are summarized in Tables 3a-3c.

[2] = Physical appearance, melt method, HCO-40 and compound 1001, at 25° C. and 4° C.; assay type: physicochemical; settings: 1001 4 wt %; for Allow to reach room temperature (25° C.): brought back from 4° C.; for Mixture physical appearance at room temperature (4° C.): placed at 4° C.; for Resuspend in water: water at 40° C.
Procedure: The preparation of MNF encapsulating compound 1001 (neat oil) can be divided into two steps. As an example for the development of 3.0 wt % HCO-40 or HCO-60 MNF encapsulating 0.4% compound 1001 is described below. […] To this melt polymer compound 1001 (˜20 mg), thermostated at 40° C., was added and mixed for homogenous distribution. […] (in refrigerator).
as §1, §2

[3] = Ocular tissue distribution of compound 1001 and RX-10008 by LC-MS/MS; assay type: in vivo, rabbit
Procedure: A study was conducted in rabbits to test the tolerance and ocular tissue distribution of two nanomicellar formulations of compound 1001 (RX10045) against matching placebos (Table 7a and 7b) and balanced saline solution (BSS). Healthy New Zealand female white rabbits (2-3 kg) were used for this study. One drop (approximately 35 μL) of study drug was applied o.d. 4×/day at two hour intervals for 5 days. One drop of BSS was applied to the contralateral eye.
Selected ocular fluids/tissues (aqueous humor, vitreous humor, conjunctiva, cornea, iris-ciliary body, lens, retina/choroid, and sclera) collected from two rabbits each in the RX-10045 (0.15% in HCO-60, 0.1% in HCO-40) treatment groups, and from one rabbit in each of the matching placebo groups, were assayed for compound 1001 and another resolvin by liquid chromatography-tandem mass spectrometry (LC-MS/MS). Warfarin-d5 and 5-HDA were used as internal standards for the analysis of RX-10045 and its active metabolite, RX-10008, respectively, in aqueous humor and vitreous humor. For the other ocular tissues (solid tissues), warfarin-d5 and phenyl acetic acid-d5 (PAA-d5) were used as the internal standards for compound 1001 and RX-10008, respectively. The analytical range for the solid tissues were 0.125-100 ng. The results of the solid tissue analyses were converted to ng/g by correcting for the amount of tissue analyzed.

[4] = rabbits, RX-10045 formulations 4×/day for 5 days

C#CC[C@@H](O)/C=C/C=C/C#C[C@@H](O)CCCC(=O)OC(C)C [compound 1001]
Final formulation ([1]; HCO-40 0.5 wt %): Emulsion | Mixture physical appearance at room temperature (25° C.) ([1]; HCO-40 0.5 wt %): Viscous yellow liquid | Resuspend in water ([1]; HCO-40 0.5 wt %): Emulsion | Final formulation ([1]; HCO-40 0.75 wt %): Emulsion | Mixture physical appearance at room temperature (25° C.) ([1]; HCO-40 0.75 wt %): Viscous yellow liquid | Resuspend in water ([1]; HCO-40 0.75 wt %): Emulsion | Final formulation ([1]; HCO-40 1.0 wt %): Emulsion | Mixture physical appearance at room temperature (25° C.) ([1]; HCO-40 1.0 wt %): Viscous yellow liquid | Resuspend in water ([1]; HCO-40 1.0 wt %): Emulsion | Final formulation ([1]; HCO-40 1.25 wt %): Emulsion | Mixture physical appearance at room temperature (25° C.) ([1]; HCO-40 1.25 wt %): Viscous yellow liquid | Resuspend in water ([1]; HCO-40 1.25 wt %): Emulsion | Final formulation ([1]; HCO-40 1.5 wt %): Emulsion | Mixture physical appearance at room temperature (25° C.) ([1]; HCO-40 1.5 wt %): Viscous yellow liquid | Resuspend in water ([1]; HCO-40 1.5 wt %): Emulsion | Final formulation ([1]; HCO-40 1.75 wt %): Emulsion | Mixture physical appearance at room temperature (25° C.) ([1]; HCO-40 1.75 wt %): Viscous yellow liquid | Resuspend in water ([1]; HCO-40 1.75 wt %): Emulsion | Final formulation ([1]; HCO-40 2.0 wt %): Emulsion | Mixture physical appearance at room temperature (25° C.) ([1]; HCO-40 2.0 wt %): Viscous yellow liquid | Resuspend in water ([1]; HCO-40 2.0 wt %): Emulsion | Final formulation ([1]; HCO-40 2.25 wt %): Emulsion | Mixture physical appearance at room temperature (25° C.) ([1]; HCO-40 2.25 wt %): Viscous yellow liquid | Resuspend in water ([1]; HCO-40 2.25 wt %): Emulsion | Final formulation ([1]; HCO-40 2.5 wt %): Yellow color | Mixture physical appearance at room temperature (25° C.) ([1]; HCO-40 2.5 wt %): Viscous yellow liquid | Resuspend in water ([1]; HCO-40 2.5 wt %): Yellow | Final formulation ([1]; HCO-40 2.75 wt %): Pale yellow | Mixture physical appearance at room temperature (25° C.) ([1]; HCO-40 2.75 wt %): Viscous yellow liquid | Resuspend in water ([1]; HCO-40 2.75 wt %): Pale | Final formulation ([1]; HCO-40 3.0 wt %): Clear solution | Mixture physical appearance at room temperature (25° C.) ([1]; HCO-40 3.0 wt %): Viscous yellow liquid | Resuspend in water ([1]; HCO-40 3.0 wt %): Clear | Final formulation ([1]; HCO-40 4.0 wt %): Clear solution | Mixture physical appearance at room temperature (25° C.) ([1]; HCO-40 4.0 wt %): Viscous yellow liquid | Resuspend in water ([1]; HCO-40 4.0 wt %): Clear | Final formulation ([2]; HCO-40 0.5 wt %): Emulsion | Mixture physical appearance at room temperature (25° C.) ([2]; HCO-40 0.5 wt %): Viscous yellow | Allow to reach room temperature (25° C.) ([2]; HCO-40 0.5 wt %): Viscous liquid | Mixture physical appearance at room temperature (4° C.) ([2]; HCO-40 0.5 wt %): Viscous liquid | Resuspend in water ([2]; HCO-40 0.5 wt %): Emulsion | Final formulation ([2]; HCO-40 0.75 wt %): Emulsion | Mixture physical appearance at room temperature (25° C.) ([2]; HCO-40 0.75 wt %): Viscous yellow | Allow to reach room temperature (25° C.) ([2]; HCO-40 0.75 wt %): Viscous liquid | Mixture physical appearance at room temperature (4° C.) ([2]; HCO-40 0.75 wt %): Viscous liquid | Resuspend in water ([2]; HCO-40 0.75 wt %): Emulsion | Final formulation ([2]; HCO-40 1.0 wt %): Emulsion | Mixture physical appearance at room temperature (25° C.) ([2]; HCO-40 1.0 wt %): Viscous yellow | Allow to reach room temperature (25° C.) ([2]; HCO-40 1.0 wt %): Viscous liquid | Mixture physical appearance at room temperature (4° C.) ([2]; HCO-40 1.0 wt %): Viscous liquid | Resuspend in water ([2]; HCO-40 1.0 wt %): Emulsion | Final formulation ([2]; HCO-40 1.25 wt %): Emulsion | Mixture physical appearance at room temperature (25° C.) ([2]; HCO-40 1.25 wt %): Viscous yellow | Allow to reach room temperature (25° C.) ([2]; HCO-40 1.25 wt %): Viscous liquid | Mixture physical appearance at room temperature (4° C.) ([2]; HCO-40 1.25 wt %): Viscous liquid | Resuspend in water ([2]; HCO-40 1.25 wt %): Emulsion | Final formulation ([2]; HCO-40 1.5 wt %): Emulsion | Mixture physical appearance at room temperature (25° C.) ([2]; HCO-40 1.5 wt %): Viscous yellow | Allow to reach room temperature (25° C.) ([2]; HCO-40 1.5 wt %): Viscous liquid | Mixture physical appearance at room temperature (4° C.) ([2]; HCO-40 1.5 wt %): Yellow waxy | Resuspend in water ([2]; HCO-40 1.5 wt %): Emulsion | Final formulation ([2]; HCO-40 1.75 wt %): Emulsion | Mixture physical appearance at room temperature (25° C.) ([2]; HCO-40 1.75 wt %): Viscous yellow | Allow to reach room temperature (25° C.) ([2]; HCO-40 1.75 wt %): Viscous liquid | Mixture physical appearance at room temperature (4° C.) ([2]; HCO-40 1.75 wt %): Yellow waxy | Resuspend in water ([2]; HCO-40 1.75 wt %): Emulsion | Final formulation ([2]; HCO-40 2.0 wt %): Emulsion | Mixture physical appearance at room temperature (25° C.) ([2]; HCO-40 2.0 wt %): Viscous yellow | Allow to reach room temperature (25° C.) ([2]; HCO-40 2.0 wt %): Viscous liquid | Mixture physical appearance at room temperature (4° C.) ([2]; HCO-40 2.0 wt %): Yellow waxy | Resuspend in water ([2]; HCO-40 2.0 wt %): Emulsion | Final formulation ([2]; HCO-40 2.25 wt %): Emulsion | Mixture physical appearance at room temperature (25° C.) ([2]; HCO-40 2.25 wt %): Viscous yellow | Allow to reach room temperature (25° C.) ([2]; HCO-40 2.25 wt %): Viscous liquid | Mixture physical appearance at room temperature (4° C.) ([2]; HCO-40 2.25 wt %): Yellow waxy | Resuspend in water ([2]; HCO-40 2.25 wt %): Emulsion | Final formulation ([2]; HCO-40 2.5 wt %): Yellow color | Mixture physical appearance at room temperature (25° C.) ([2]; HCO-40 2.5 wt %): Viscous yellow | Allow to reach room temperature (25° C.) ([2]; HCO-40 2.5 wt %): Viscous liquid | Mixture physical appearance at room temperature (4° C.) ([2]; HCO-40 2.5 wt %): Yellow waxy | Resuspend in water ([2]; HCO-40 2.5 wt %): Yellow | Final formulation ([2]; HCO-40 2.75 wt %): Very pale yellow | Mixture physical appearance at room temperature (25° C.) ([2]; HCO-40 2.75 wt %): Viscous yellow | Allow to reach room temperature (25° C.) ([2]; HCO-40 2.75 wt %): Viscous liquid | Mixture physical appearance at room temperature (4° C.) ([2]; HCO-40 2.75 wt %): Pale yellow waxy | Resuspend in water ([2]; HCO-40 2.75 wt %): Pale yellow | Final formulation ([2]; HCO-40 3.0 wt %): Clear solution | Mixture physical appearance at room temperature (25° C.) ([2]; HCO-40 3.0 wt %): Viscous yellow | Allow to reach room temperature (25° C.) ([2]; HCO-40 3.0 wt %): Viscous liquid | Mixture physical appearance at room temperature (4° C.) ([2]; HCO-40 3.0 wt %): Pale yellow solid | Resuspend in water ([2]; HCO-40 3.0 wt %): Clear | Final formulation ([2]; HCO-40 4.0 wt %): Clear solution | Mixture physical appearance at room temperature (25° C.) ([2]; HCO-40 4.0 wt %): Viscous yellow | Allow to reach room temperature (25° C.) ([2]; HCO-40 4.0 wt %): Pale yellow | Mixture physical appearance at room temperature (4° C.) ([2]; HCO-40 4.0 wt %): Pale yellow waxy | Resuspend in water ([2]; HCO-40 4.0 wt %): Clear | hydrolysis to active metabolite RX-10008 ([3]; rabbit ocular tissues): rapidly hydrolyzed | compound 1001 in the majority of ocular tissues [3, 4]: either not detected or was below the quantitation limit | concentrations of the compound 1001 ester prodrug in the sclera and conjunctiva [3, 4]: sporadic, relatively low

From patent US10441630B2, “Topical formulations and uses thereof” (OCULAR TECHNOLOGIES SARL, priority 2012, dated 2019)
